According to PMC5675747 (The Journal of steroid biochemistry and molecular biology, 2017):

Experiments:
zfSult2st3 = target: T1, zfSult2st3 (Danio rerio, UniProt A0ACM8QCA3); test: […]PAPS sulfation assay, TLC and scintillation counting; type: biochemical; conditions: 14 μM PAPS, 50 mM Mops pH 7.0, 1 mM DTT, 28 °C; substrate inhibition constant
T1 sequence (A0ACM8QCA3 1-288): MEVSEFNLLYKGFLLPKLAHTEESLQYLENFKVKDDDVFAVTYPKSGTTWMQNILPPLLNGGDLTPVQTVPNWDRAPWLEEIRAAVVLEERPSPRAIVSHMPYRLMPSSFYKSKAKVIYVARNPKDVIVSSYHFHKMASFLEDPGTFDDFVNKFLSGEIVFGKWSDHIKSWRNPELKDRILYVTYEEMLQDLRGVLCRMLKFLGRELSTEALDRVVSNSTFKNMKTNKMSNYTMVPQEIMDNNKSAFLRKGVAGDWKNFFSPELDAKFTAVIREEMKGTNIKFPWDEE

zfSult2st2 = target: T2, zfSult2st2 (Danio rerio, UniProt A0EXC5); test: as above; type: biochemical; conditions: 14 μM PAPS, 50 mM Mops pH 7.0, 1 mM DTT, 28 °C; substrate inhibition constant
T2 sequence (A0EXC5 1-287): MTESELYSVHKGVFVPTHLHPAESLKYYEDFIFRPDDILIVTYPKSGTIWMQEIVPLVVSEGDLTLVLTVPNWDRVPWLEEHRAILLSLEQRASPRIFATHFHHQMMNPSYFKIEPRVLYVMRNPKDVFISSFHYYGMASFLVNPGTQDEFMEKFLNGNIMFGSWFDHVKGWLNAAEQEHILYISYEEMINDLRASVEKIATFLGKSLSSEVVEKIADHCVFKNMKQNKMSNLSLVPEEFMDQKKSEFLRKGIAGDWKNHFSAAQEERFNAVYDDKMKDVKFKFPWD

hSULT2A1 = target: T3, hSULT2A1 (Homo sapiens, UniProt Q06520); test: as above; type: biochemical; conditions: 14 μM PAPS, 50 mM Mops pH 7.0, 1 mM DTT, 37 °C; substrate inhibition constant
T3 sequence (Q06520 1-285): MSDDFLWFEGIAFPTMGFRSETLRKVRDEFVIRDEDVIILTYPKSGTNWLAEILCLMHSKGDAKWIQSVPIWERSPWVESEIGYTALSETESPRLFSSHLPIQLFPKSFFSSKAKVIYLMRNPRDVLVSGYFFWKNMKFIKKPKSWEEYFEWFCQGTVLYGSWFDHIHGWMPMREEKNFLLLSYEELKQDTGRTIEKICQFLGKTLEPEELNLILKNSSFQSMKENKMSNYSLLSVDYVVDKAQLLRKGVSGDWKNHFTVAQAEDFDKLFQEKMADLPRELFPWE

zfSult3st4 = target: T4, zfSult3st4 (Danio rerio, UniProt A0A8M1P203); test: as above; type: biochemical; conditions: 14 μM PAPS, 50 mM Mops pH 7.0, 1 mM DTT, 28 °C; substrate inhibition constant
T4 sequence (A0A8M1P203 1-299): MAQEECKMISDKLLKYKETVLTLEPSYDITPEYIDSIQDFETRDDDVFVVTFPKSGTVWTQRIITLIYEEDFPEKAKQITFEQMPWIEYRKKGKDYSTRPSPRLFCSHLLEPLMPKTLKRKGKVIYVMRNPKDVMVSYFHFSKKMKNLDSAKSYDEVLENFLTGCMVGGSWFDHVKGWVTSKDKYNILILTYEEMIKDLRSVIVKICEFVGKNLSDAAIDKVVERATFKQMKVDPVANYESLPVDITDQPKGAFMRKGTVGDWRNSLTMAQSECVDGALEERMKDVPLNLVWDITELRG

purified protein [1] = substrate: C[C@H](CCCC(CO)CO)[C@H]1CC[C@H]2[C@@H]3[C@H](O)C[C@@H]4C[C@H](O)CC[C@]4(C)[C@H]3C[C@H](O)[C@]12C; test: purified protein; type: biochemical, Danio rerio; conditions: 14 μM PAPS, 50 mM Mops pH 7.0, 1 mM DTT, 28 °C
purified protein [2] = substrate: C[C@H](CCCC(CO)CO)[C@H]1CC[C@H]2[C@@H]3[C@H](O)C[C@@H]4C[C@H](O)CC[C@]4(C)[C@H]3C[C@H](O)[C@]12C; test: purified protein; type: biochemical, Homo sapiens; conditions: 14 μM PAPS, 50 mM Mops pH 7.0, 1 mM DTT, 37 °C

C[C@H](CCCC(CO)CO)[C@H]1CC[C@H]2[C@@H]3[C@H](O)C[C@@H]4C[C@H](O)CC[C@]4(C)[C@H]3C[C@H](O)[C@]12C [5β-cyprinol]
Ki (zfSult2st3): 39.78 ± 6.70 µM | Ki (zfSult2st2): 58.15 ± 5.74 µM

C[C@H](CCCC(CO)CO)[C@H]1CC[C@H]2[C@@H]3[C@H](O)C[C@H]4C[C@H](O)CC[C@]4(C)[C@H]3C[C@H](O)[C@]12C [5α-cyprinol, 3α,7α,12α,26,27-pentahydroxy-5α-cholestane]
Ki (hSULT2A1): 210.8 ± 19.9 µM | Ki (zfSult2st3): 373.9 ± 38.0 µM | Ki (zfSult3st4): 164.9 ± 22.2 µM | Ki (zfSult2st2): 27.43 ± 11.16 µM

B1: zfSult3st4 (Danio rerio) (protein)
chain: MAQEECKMISDKLLKYKETVLTLEPSYDITPEYIDSIQDFETRDDDVFVVTFPKSGTVWTQRIITLIYEEDFPEKAKQITFEQMPWIEYRKKGKDYSTRPSPRLFCSHLLEPLMPKTLKRKGKVIYVMRNPKDVMVSYFHFSKKMKNLDSAKSYDEVLENFLTGCMVGGSWFDHVKGWVTSKDKYNILILTYEEMIKDLRSVIVKICEFVGKNLSDAAIDKVVERATFKQMKVDPVANYESLPVDITDQPKGAFMRKGTVGDWRNSLTMAQSECVDGALEERMKDVPLNLVWDITELRG
Km (purified protein [1]): 98.9 ± 2.89 µM | Vmax (purified protein [1]): 0.00397 µmol/min/mg

B2: hSULT2A1 (Homo sapiens) (protein)
chain: MSDDFLWFEGIAFPTMGFRSETLRKVRDEFVIRDEDVIILTYPKSGTNWLAEILCLMHSKGDAKWIQSVPIWERSPWVESEIGYTALSETESPRLFSSHLPIQLFPKSFFSSKAKVIYLMRNPRDVLVSGYFFWKNMKFIKKPKSWEEYFEWFCQGTVLYGSWFDHIHGWMPMREEKNFLLLSYEELKQDTGRTIEKICQFLGKTLEPEELNLILKNSSFQSMKENKMSNYSLLSVDYVVDKAQLLRKGVSGDWKNHFTVAQAEDFDKLFQEKMADLPRELFPWE
Km (purified protein [2]): 221.3 ± 23.1 µM | Vmax (purified protein [2]): 0.00224 µmol/min/mg
